Columns and labels:
broadleaf signalgrass = assay: Test G preemergence test; assay type: in vivo, Brachiaria platyphylla; details: scale 0 to 100
spring wheat = assay: Test D preemergence test; assay type: in vivo, Triticum aestivum; details: scale 0 to 100
Method in brief: (§1)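 Seeds were sown and sprayed preemergence with test chemicals formulated in a non-phytotoxic solvent mixture containing a surfactant. A dash marks no test result.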

winter wheat = assay: Test D preemergence test; assay type: in vivo, Triticum aestivum; details: scale 0 to 100
Method in brief: as §1

itchgrass = assay: Test G preemergence test; assay type: in vivo, Rottboellia cochinchinensis; details: scale 0 to 100
annual bluegrass = assay: Test D preemergence test; assay type: in vivo, Poa annua; details: scale 0 to 100
Method in brief: as §1

rice = assay: Test B flooded paddy test; assay type: in vivo, Oryza sativa; details: Flood, 250 g ai/ha, 13 to 15 days; scale 0 to 100, 0 no effect, 100 complete control
Description: (§2) At time of treatment, test pots were flooded to 3 cm above the soil surface, treated by application of test compounds directly to the paddy water, and then maintained at that water depth for the duration of the test. Treated plants and controls were maintained in a greenhouse for 13 to 15 days, after which time all species were compared to controls and visually evaluated. […] A dash (-) response means no test result.

blackgrass = assay: Test D preemergence test; assay type: in vivo, Alopecurus myosuroides; details: scale 0 to 100
Method in brief: as §1

cotton = assay: Test G preemergence test; assay type: in vivo, Gossypium hirsutum; details: scale 0 to 100
wild oat = assay: Test D preemergence test; assay type: in vivo, Avena fatua; details: scale 0 to 100
Method in brief: as §1

soybean = assay: Test G preemergence test; assay type: in vivo, Glycine max; details: scale 0 to 100
barnyardgrass = assay: Test B flooded paddy test; assay type: in vivo, Echinochloa crus-galli; details: Flood, 250 g ai/ha, 13 to 15 days; scale 0 to 100, 0 no effect, 100 complete control
Description: as §2

field violet = assay: Test D preemergence test; assay type: in vivo, Viola arvensis; details: scale 0 to 100
Method in brief: as §1

littleseed canarygrass = assay: Test D preemergence test; assay type: in vivo, Phalaris minor; details: scale 0 to 100
Method in brief: as §1

corn = assay: Test G preemergence test; assay type: in vivo, Zea mays; details: scale 0 to 100
lambsquarters = assay: Test G preemergence test; assay type: in vivo, Chenopodium album; details: scale 0 to 100
duck salad = assay: Test B flooded paddy test; assay type: in vivo, Heteranthera limosa; details: Flood, 250 g ai/ha, 13 to 15 days; scale 0 to 100, 0 no effect, 100 complete control
Description: as §2

eastern black nightshade = assay: Test G preemergence test; assay type: in vivo, Solanum ptycanthum; details: scale 0 to 100
large crabgrass = assay: Test G preemergence test; assay type: in vivo, Digitaria sanguinalis; details: scale 0 to 100
yellow nutsedge = assay: Test G preemergence test; assay type: in vivo, Cyperus esculentus; details: scale 0 to 100
umbrella sedge = assay: Test B flooded paddy test; assay type: in vivo, Cyperus difformis; details: Flood, 250 g ai/ha, 13 to 15 days; scale 0 to 100, 0 no effect, 100 complete control
Description: as §2

sorghum = assay: Test G preemergence test; assay type: in vivo, Sorghum vulgare; details: scale 0 to 100
tall waterhemp = assay: Test G preemergence test; assay type: in vivo, Amaranthus tuberculatos; details: scale 0 to 100
yellow foxtail = assay: Test G preemergence test; assay type: in vivo, Pennisetum glaucum; details: scale 0 to 100
Italian ryegrass = assay: Test D preemergence test; assay type: in vivo, Lolium multiflorum; details: scale 0 to 100
Method in brief: as §1

goosegrass = assay: Test G preemergence test; assay type: in vivo, Eleusine indica; details: scale 0 to 100
woolly cupgrass = assay: Test G preemergence test; assay type: in vivo, Eriochloa villosa; details: scale 0 to 100

## Cn1nc(C(F)(F)F)c(C[S+]([O-])c2cccc[n+]2[O-])c1OC(F)F (centres unmarked) [Compound 3]
Broadleaf signalgrass; 31 g ai/ha
  Plant response rating, Signalgrass: 0
Broadleaf signalgrass; 62 g ai/ha
  Plant response rating, Signalgrass: 45
Broadleaf signalgrass; 125 g ai/ha
  Plant response rating, Signalgrass: 60
Broadleaf signalgrass; 250 g ai/ha
  Plant response rating, Signalgrass: 95
Spring wheat; 31 g ai/ha
  Plant response rating, Wheat, Spring: 0
Spring wheat; 62 g ai/ha
  Plant response rating, Wheat, Spring: 0
Spring wheat; 125 g ai/ha
  Plant response rating, Wheat, Spring: 15
Spring wheat; 250 g ai/ha
  Plant response rating, Wheat, Spring: 20
Winter wheat; 31 g ai/ha
  Plant response rating, Wheat, Winter: 0
Winter wheat; 62 g ai/ha
  Plant response rating, Wheat, Winter: 10
Winter wheat; 125 g ai/ha
  Plant response rating, Wheat, Winter: 15
Winter wheat; 250 g ai/ha
  Plant response rating, Wheat, Winter: 40
itchgrass; 31 g ai/ha
  Plant response rating, Itchgrass: 0
itchgrass; 62 g ai/ha
  Plant response rating, Itchgrass: 45
itchgrass; 125 g ai/ha
  Plant response rating, Itchgrass: 60
itchgrass; 250 g ai/ha
  Plant response rating, Itchgrass: 90
Annual bluegrass; 31 g ai/ha
  Plant response rating, Bluegrass: 0
Annual bluegrass; 62 g ai/ha
  Plant response rating, Bluegrass: 20
Annual bluegrass; 125 g ai/ha
  Plant response rating, Bluegrass: 100
Annual bluegrass; 250 g ai/ha
  Plant response rating, Bluegrass: 100
rice
  Plant response rating, Rice, Transplanted: 60
blackgrass; 31 g ai/ha
  Plant response rating, Blackgrass: 0
blackgrass; 62 g ai/ha
  Plant response rating, Blackgrass: 20
blackgrass; 125 g ai/ha
  Plant response rating, Blackgrass: 100
blackgrass; 250 g ai/ha
  Plant response rating, Blackgrass: 100
cotton; 31 g ai/ha
  Plant response rating, Cotton: 0
cotton; 62 g ai/ha
  Plant response rating, Cotton: 0
cotton; 125 g ai/ha
  Plant response rating, Cotton: 10
cotton; 250 g ai/ha
  Plant response rating, Cotton: 25
Wild oat; 31 g ai/ha
  Plant response rating, Oat, Wild: 0
Wild oat; 62 g ai/ha
  Plant response rating, Oat, Wild: 0
Wild oat; 125 g ai/ha
  Plant response rating, Oat, Wild: 10
Wild oat; 250 g ai/ha
  Plant response rating, Oat, Wild: 20
soybean; 31 g ai/ha
  Plant response rating, Soybean: 0
soybean; 62 g ai/ha
  Plant response rating, Soybean: 15
soybean; 125 g ai/ha
  Plant response rating, Soybean: 20
soybean; 250 g ai/ha
  Plant response rating, Soybean: 35
barnyardgrass
  Plant response rating, Barnyardgrass: 60
Field violet; 31 g ai/ha
  Plant response rating, Field Violet: 70
Field violet; 62 g ai/ha
  Plant response rating, Field Violet: 70
Field violet; 125 g ai/ha
  Plant response rating, Field Violet: 85
Field violet; 250 g ai/ha
  Plant response rating, Field Violet: 100
Littleseed canarygrass; 31 g ai/ha
  Plant response rating, Canarygrass: 0
Littleseed canarygrass; 62 g ai/ha
  Plant response rating, Canarygrass: 40
Littleseed canarygrass; 125 g ai/ha
  Plant response rating, Canarygrass: 100
Littleseed canarygrass; 250 g ai/ha
  Plant response rating, Canarygrass: 100
corn; 31 g ai/ha
  Plant response rating, Corn: 0
corn; 62 g ai/ha
  Plant response rating, Corn: 0
corn; 125 g ai/ha
  Plant response rating, Corn: 10
corn; 250 g ai/ha
  Plant response rating, Corn: 60
lambsquarters; 31 g ai/ha
  Plant response rating, Lambsquarters: 0
lambsquarters; 62 g ai/ha
  Plant response rating, Lambsquarters: 0
lambsquarters; 125 g ai/ha
  Plant response rating, Lambsquarters: 100
lambsquarters; 250 g ai/ha
  Plant response rating, Lambsquarters: 100
Duck salad
  Plant response rating, Ducksalad: 90
Eastern black nightshade; 31 g ai/ha
  Plant response rating, Nightshade: 0
Eastern black nightshade; 62 g ai/ha
  Plant response rating, Nightshade: 60
Eastern black nightshade; 125 g ai/ha
  Plant response rating, Nightshade: 65
Eastern black nightshade; 250 g ai/ha
  Plant response rating, Nightshade: 100
Large crabgrass; 31 g ai/ha
  Plant response rating, Crabgrass, Large: 0
Large crabgrass; 62 g ai/ha
  Plant response rating, Crabgrass, Large: 60
Large crabgrass; 125 g ai/ha
  Plant response rating, Crabgrass, Large: 100
Large crabgrass; 250 g ai/ha
  Plant response rating, Crabgrass, Large: 100
Yellow nutsedge; 31 g ai/ha
  Plant response rating, Nutsedge, Yellow: 0
Yellow nutsedge; 62 g ai/ha
  Plant response rating, Nutsedge, Yellow: 15
Yellow nutsedge; 125 g ai/ha
  Plant response rating, Nutsedge, Yellow: 65
Yellow nutsedge; 250 g ai/ha
  Plant response rating, Nutsedge, Yellow: 65
Umbrella sedge
  Plant response rating, Umbrella Sedge: 100
sorghum; 31 g ai/ha
  Plant response rating, Sorghum: 0
sorghum; 62 g ai/ha
  Plant response rating, Sorghum: 10
sorghum; 125 g ai/ha
  Plant response rating, Sorghum: 55
sorghum; 250 g ai/ha
  Plant response rating, Sorghum: 100
Tall waterhemp; 31 g ai/ha
  Plant response rating, Waterhemp: 0
Tall waterhemp; 62 g ai/ha
  Plant response rating, Waterhemp: 0
Tall waterhemp; 125 g ai/ha
  Plant response rating, Waterhemp: 100
Tall waterhemp; 250 g ai/ha
  Plant response rating, Waterhemp: 100
Yellow foxtail; 31 g ai/ha
  Plant response rating, Foxtail, Yellow: 0
Yellow foxtail; 62 g ai/ha
  Plant response rating, Foxtail, Yellow: 75
Yellow foxtail; 125 g ai/ha
  Plant response rating, Foxtail, Yellow: 100
Yellow foxtail; 250 g ai/ha
  Plant response rating, Foxtail, Yellow: 100
Italian ryegrass; 31 g ai/ha
  Plant response rating, Ryegrass, Italian: 0
Italian ryegrass; 62 g ai/ha
  Plant response rating, Ryegrass, Italian: 35
Italian ryegrass; 125 g ai/ha
  Plant response rating, Ryegrass, Italian: 45
Italian ryegrass; 250 g ai/ha
  Plant response rating, Ryegrass, Italian: 95
goosegrass; 31 g ai/ha
  Plant response rating, Goosegrass: 65
goosegrass; 62 g ai/ha
  Plant response rating, Goosegrass: 80
goosegrass; 125 g ai/ha
  Plant response rating, Goosegrass: 100
goosegrass; 250 g ai/ha
  Plant response rating, Goosegrass: 100
Woolly cupgrass; 31 g ai/ha
  Plant response rating, Cupgrass, Woolly: 0
Woolly cupgrass; 62 g ai/ha
  Plant response rating, Cupgrass, Woolly: 40
Woolly cupgrass; 125 g ai/ha
  Plant response rating, Cupgrass, Woolly: 95
Woolly cupgrass; 250 g ai/ha
  Plant response rating, Cupgrass, Woolly: 100

Reference: patent US20100298141A1, “SUBSTITUTED PYRIDINE N-OXIDE HERBICIDES” (E. I. DU PONT DE NEMOURS AND COMPANY, priority 2007, published 2010)
